# Assay results published in the supplement of paper PMC10307832.
# What was measured:
# Experiment in all cases: relative viability (nuclei count vs DMSO), 5 days (fraction); higher = more cells survive
# [1] = tested on: NCI-H1666
# Procedure, shortened: (§1)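 Lung cancer cell lines, seeded in 1536-well plates, were treated the following day by pin tool with a single drug or with five library-drug doses (not always all listed) in √10 steps on top of a fixed anchor-drug dose. Cells were fixed and nuclei stained in one step after 5 days, and nuclei were counted. Relative viability is the nuclei count for treated wells divided by that for vehicle wells, reported as medians of duplicate plates.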
# [2] = tested on: NCI-H1395
# Procedure, shortened: as §1
# [3] = tested on: NCI-H520
# Procedure, shortened: as §1
# [4] = tested on: LCLC-103H
# Procedure, shortened: as §1
# [5] = tested on: NCI-H647
# Procedure, shortened: as §1
# [6] = tested on: NCI-H2170
# Procedure, shortened: as §1
# [7] = tested on: NCI-H1993
# Procedure, shortened: as §1
# [8] = tested on: NCI-H1651
# Procedure, shortened: as §1
# [9] = tested on: NCI-H2347
# Procedure, shortened: as §1
# [10] = tested on: NCI-H2085
# Procedure, shortened: as §1
# [11] = tested on: COR-L23
# Procedure, shortened: as §1
# [12] = tested on: ABC-1
# Procedure, shortened: as §1
structure (smiles),measurement,setting,value
CCCCCCCCCCCC1=C(O)C(=O)C=C(O)C1=O [Embelin] + Nc1ncn([C@H]2C[C@H](O)[C@@H](CO)O2)c(=O)n1 [Decitabine] (partner 2 µM),relative viability,[1]; first compound 0.08 µM,0.712
same,relative viability,[1]; first compound 0.8 µM,0.812
same,relative viability,[1]; first compound 2.53 µM,0.78
same,relative viability,[1]; first compound 8 µM,0.757
same,relative viability,[2]; first compound 0.08 µM,0.712
same,relative viability,[2]; first compound 0.8 µM,0.872
same,relative viability,[2]; first compound 2.53 µM,0.699
same,relative viability,[2]; first compound 8 µM,0.698
same,relative viability,[3]; first compound 0.08 µM,0.478
same,relative viability,[3]; first compound 0.8 µM,0.558
same,relative viability,[3]; first compound 2.53 µM,0.552
same,relative viability,[3]; first compound 8 µM,0.441
same,relative viability,[4]; first compound 0.08 µM,0.754
same,relative viability,[4]; first compound 0.8 µM,0.755
same,relative viability,[4]; first compound 2.53 µM,0.737
same,relative viability,[4]; first compound 8 µM,0.718
same,relative viability,[5]; first compound 0.08 µM,0.454
same,relative viability,[5]; first compound 0.8 µM,0.379
same,relative viability,[5]; first compound 2.53 µM,0.488
same,relative viability,[5]; first compound 8 µM,0.277
same,relative viability,[6]; first compound 0.08 µM,0.514
same,relative viability,[6]; first compound 0.8 µM,0.446
same,relative viability,[6]; first compound 2.53 µM,0.506
same,relative viability,[6]; first compound 8 µM,0.456
same,relative viability,[7]; first compound 0.08 µM,0.481
same,relative viability,[7]; first compound 0.8 µM,0.608
same,relative viability,[7]; first compound 2.53 µM,0.627
same,relative viability,[7]; first compound 8 µM,0.548
same,relative viability,[8]; first compound 0.08 µM,0.634
same,relative viability,[8]; first compound 0.8 µM,0.67
same,relative viability,[8]; first compound 2.53 µM,0.867
same,relative viability,[8]; first compound 8 µM,0.659
same,relative viability,[9]; first compound 0.08 µM,0.618
same,relative viability,[9]; first compound 0.8 µM,0.72
same,relative viability,[9]; first compound 2.53 µM,0.671
same,relative viability,[9]; first compound 8 µM,0.592
same,relative viability,[10]; first compound 0.08 µM,0.538
same,relative viability,[10]; first compound 0.8 µM,0.602
same,relative viability,[10]; first compound 2.53 µM,0.531
same,relative viability,[10]; first compound 8 µM,0.504
same,relative viability,[11]; first compound 0.08 µM,0.454
same,relative viability,[11]; first compound 0.8 µM,0.479
same,relative viability,[11]; first compound 2.53 µM,0.433
same,relative viability,[11]; first compound 8 µM,0.393
same,relative viability,[12]; first compound 0.08 µM,1.02
same,relative viability,[12]; first compound 0.8 µM,1.11
